# Source: patent publication US10913773B2, “Bicyclic peptidyl inhibitor of tumor necrosis factor-alpha” (Ohio State Innovation Foundation, priority 2016, dated 2021)
# Test system: murine TNFα-induced cell death in WEHI-13VAR fibroblasts
# Assay: MTT assay: protection of WEHI-13VAR fibroblasts against murine TNFα-induced cell death
# Type: cell-based
# Conditions: murine TNFα with 10 μM peptide; no inhibitor 10 ng/mL
# Procedure: WEHI-13VAR fibroblasts were purchased from American Type Culture Collection (ATCC). For maintenance, cells were grown in full medium as RPMI-1640 supplemented with 10% FBS and 1% Abs. For toxicity assay, cells were seeded in a 96-well plate at a density of 5×10^3 cells/well in 100 μL of RPMI-1640/1% Abs supplemented with 10% or 5% FBS and allowed to grow overnight. Varying concentrations of recombinant human TNFα (0-250 ng/mL) or commercial mouse TNFα were (0-100 pg/mL) were incubated with 10 μM peptide and actinomycin D (1 μg/mL) in 100 μL of corresponding growth medium for 1 h at 37° C. Next, the medium in the 96-well plate was removed and replaced with the above fresh mixture and the cells were incubated overnight. Next day, 10 μL of the 3-(4, 5-dimethylthiazolyl-2)-2, 5-diphenyltetrazolium bromide (MTT, final concentration 0.5 mg/ml) was added to each well and incubated at 37° C. for 3 h, following by the addition of 100 μL of the MTT solubilization solution. The plate was kept in the incubator overnight to let the formazan crystals to completely dissolve, and the absorbance at 570 nm was measured on a TECAN plate reader. The LD50 was obtained as plotting the viability as a function of the TNFα concentration.
# TNFα inhibitor C1-74-2 was tested for its inhibitory activity against murine TNFα, a necessary step before testing C1-74-2 in a mouse model of inflammatory bowel disease.
smiles,measurement,value
CC(=O)[C@@H]1CCCN(C(=O)[C@@H](Cc2c[nH]cn2)NC(=O)C(N)C(C)C)C1 (stereo partly shown) [Compound C1-74-2],LD50 value of TNFα,31 ng/mL
